# How the values were obtained:
# [1] = target: T1, Hepatitis A virus cellular receptor 2 (Homo sapiens, UniProt Q8TDQ0)
# T1 sequence (Q8TDQ0 whole entry): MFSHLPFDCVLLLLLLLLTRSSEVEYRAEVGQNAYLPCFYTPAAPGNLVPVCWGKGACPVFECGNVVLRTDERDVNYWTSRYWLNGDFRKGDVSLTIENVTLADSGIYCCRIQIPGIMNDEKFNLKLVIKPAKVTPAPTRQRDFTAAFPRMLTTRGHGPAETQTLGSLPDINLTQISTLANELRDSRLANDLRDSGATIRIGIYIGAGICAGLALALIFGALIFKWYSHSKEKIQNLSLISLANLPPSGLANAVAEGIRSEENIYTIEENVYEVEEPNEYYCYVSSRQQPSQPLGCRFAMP
# Description: Binding affinity to human TIM-3 IgV domain (residues 22 to 130) expressed in Escherichia coli BL21 (DE3) by 1H-15N SOFAST-HMQC spectroscopic analysis
# [2] = Aqueous solubility of the compound; type: physicochemical; conditions: buffer
# [3] = target: T1, Hepatitis A virus cellular receptor 2; experiment: Displacement of FITC-labelled 5-(((8-Chloro-9-(3-methylpyridin-4-yl)-5-oxo-5,6-dihydro-[1,2,4]triazolo[1,5-c]quinazolin-2-yl)methyl)carbamoyl)-2-(6-hydroxy-3-oxo-3H-xanthen-9-yl)benzoic acid probe from human TIM-3 IgV domain (residues 22 to 130) expressed in Escherichia coli BL21 (DE3) by FPA competition assay
Kd [1],solubility [2],SMILES,other results
530 µM,–,CN(C)CCn1c(=S)[nH]c2ccccc2c1=O,–
850 µM,–,Cc1ccc(Nc2ncnc3c2cnn3C)cc1,–
460 µM,–,Cc1cc(-c2nc3ncccc3o2)ccc1N,–
1400 µM,–,Cc1cccc(Nc2cc(=O)n(C)c(=O)n2C)c1,–
> 2000 µM,Insoluble,Oc1nc2ccccc2c2nc(-c3ccccc3)nn12,–
–,Insoluble,Cc1nc2c3cc(-c4ccncc4C)ccc3[nH]c(=O)n2n1,–
–,Insoluble,Cc1nc2c3cc(Br)ccc3[nH]c(=O)n2n1,–
10 µM,–,Cc1nc2c3cc(-c4ccncc4C)c(Cl)cc3[nH]c(=O)n2n1,IC50 [3]: 53 µM; Ki [3]: 4.9 µM
> 2000 µM,–,O=C1CC(c2ccccc2)c2cc3c(cc2N1)OCO3 (stereo not drawn),–
670 µM,–,Sc1nc2cc(Cl)ccc2[nH]1,–

# Reference: ChEMBL document CHEMBL4842382, “Fragment-Based Discovery of Small Molecules Bound to T-Cell Immunoglobulin and Mucin Domain-Containing Molecule 3 (TIM-3)” (J Med Chem, 2021)
